# Data taken from patent US20180318199A1, “Pharmaceutical Composition Having Anti-Aging Properties against High-Glucose” (TAIWAN LEADER BIOTECH CORP., priority 2017, published 2018).
# pIC50: −log10 of the molar value.
# Experiments:
# Type in all cases: cell-based, human
# HNDFs (CCD966SK) = assay: MTT cytotoxicity of antcins against HNDFs; conditions: for pIC50: MTT assay, 72 h, 1, 5, 10 and 20 μM tested, read-out: 50% inhibitory concentration (IC50) against HNDFs; for cytotoxicity to HNDFs (in words): MTT, 72 h, up to 20 μM
# Method: Please refer to FIG. 2A˜FIG. 2D, which are views showing HG-induced senescence affected by antcins in HNDFs. As shown in the figures, prior to an investigation, cytotoxicity of antcins against HNDFs is determined. In FIG. 2A, type of antcins are subjected to screen for potential anti-aging agents for skin aging. Names and chemical structures of the antcins are shown in the left and center column, respectively. The cytotoxic effects of antcins against HNDFs are investigated. Briefly, HNDFs are incubated with increasing concentrations (1, 5, 10 and 20 μM) of antcins including ANA, ANB, ANC, ANH, ANK and ANM for 72 h and the cell viability is determined by MTT assay. The 50% inhibitory concentrations (IC50) of each compound against HNDFs are shown in right column.
# Cell viability is assessed by MTT colorimetric assay. Briefly, HNDFs (2×10^4cells/well) or HUVECs (5×10^4 cells/well) are seeded in a 24-well culture plate. After treatment with HG (15 and 30 mM) in the presence or absence of samples for 24-72 h, culture media is withdrawn and incubated with MTT (1 mg/mL) in fresh medium for 2 h. The MTT formazan crystals are dissolved in 400 μL of DMSO and the samples are measured at 570 nm […] using an ELISA microplate reader (Bio-Tek Instruments, Winooski, Vt.). The percentage of cell viability (%) is calculated as (A570 of treated cells/A570 of untreated cells)×100.
# [1] = test system: p16^INK4A, p21^CIP1 and SMP30; assay: Western blot of senescence-associated marker proteins in HNDFs; conditions: 10 μM + HG 30 mM, 72 h, western blot
# Method: In addition, in FIG. 2C, HNDFs are incubated with ANA (10 μM), ANH (10 μM) and ANM (10 μM) in the presence of HG (30 mM) for 72 h. Senescence-associated marker proteins such as p16^INK4A, p21^CIP1 and SMP30 are determined by western blot analysis.
# In order to assess the cellular and molecular basis of the ANM-mediated inhibition of senescence, the expression levels of senescence-associated marker proteins including, p16^INK4A and p21^CIP1 are examined. In FIG. 4D, to determine the effect of ANM on senescence-associated protein expression, HNDFs are incubated with ANM (10 μM) or NAC (100 μM) in the presence or absence of HG (30 mM) for 72 h. Immunoblotting analysis is used to determine the protein levels with corresponding specific antibodies.
# (§1) Cells are lysed by either RIPA lysis buffer or nuclear and cytoplasmic extraction reagents (Thermo Fisher Scientific). Protein concentrations are determined by Bio-Rad protein assay reagent (Bio-Rad Laboratories, Hercules, Calif.). Equal amounts of protein samples (60 μg) are separated by 7-12% SDS-PAGE and the separated proteins are transferred onto polyvinylidene […] (PVDC) membrane overnight. The transferred protein membranes are blocked with 5% non-fat dried milk for 30 min, followed by incubation with specific primary antibodies overnight, and either horseradish peroxidase-conjugated goat anti-rabbit or anti-mouse antibodies for 2 h. The blots are detected using VL Chemi-Smart 3000 (Viogene Biotek, Sunnyvale, Calif.) with the enhanced chemiluminescence (ECL) western blotting reagent (Millipore, Billerica, Mass.).
# HNDFs [2] = assay: Trypan blue exclusion cell proliferation assay in HNDFs; conditions: antcins 10 μM + HG 30 mM, 72 h, trypan blue exclusion
# Method: To further clarify the effect of antcins, HG-induced reduction in cell proliferation is determined. In FIG. 2D, to determine the effect of antcins on cell proliferation efficacy, 5×10^4 cells/well of HNDFs are incubated with antcins in 6-well plates in the presence of HG (30 mM) for 72 h. Number of viable cells is quantified by the tryphan blue exclusion method. Results are expressed as mean±S.E.M of three indipendent expriments. Statistical significance is set at ^ϕP<0.05 as compared to NG vs. HG and *P<0.05 as compared to HG vs. samples. […] Therefore, the molecular mechanism underlying the protective effect of ANM is explored next.
# Furthermore, in FIG. 3C, to determine the effect of ANM or NAC on cell proliferation, 5×10^4 cells/well of HNDFs are incubated in a 6-well plate with ANM (10 μM) or NAC (100 μM) in the presence of HG (30 mM) for 72 h. Number of viable cells is quantified by the tryphan blue exclusion method. Results expressed as mean±S.E.M of three independent experiments. Statistical significance is set at ^ϕP<0.05 as compared to NG vs. HG and *P<0.05 as compared to HG vs. samples.
# Cell proliferation is evaluated using trypan blue exclusion assay as described previously with minor modification. Cells are plated into 6-well plates at a density of 5×10^4 cells/well. After incubation overnight, cells are treated with test samples in the presence or absence of HG for 24-72 h. Cells exposed to 0.2% Trypan blue are then counted in a hemocytometer, and cells stained with Trypan blue are excluded. Percentage of viable cells is calculated based on the ratio of viable cells to total cell population in each well. The proliferation rate is calculated based on the number of viable cells in HG or sample-treated groups versus the NG-treated group.
# HNDFs [3] = assay: SA-β-gal senescence assay in HG-induced HNDFs; conditions: for SA-β-gal positive cells: 10 μM compound + HG 30 mM, 72 h, HG alone 9.59-fold (FIG. 2B); for HG-induced SA-β-gal activity, kinase inhibitors: inhibitor 30 μM + HG 30 mM, 72 h (FIG. 4H)
# Method: Next, the protective effects of antcins on HG-induced HNDF senescence are examined. In FIG. 2B, cells were incubated with ANA (10 μM), ANH (10 μM) and ANM (10 μM) in the presence of HG (30 mM) for 72 h. Cellular senescence is determined by SA-β-gal activity. […] After cells are co-incubated with HG and antcins (ANA, ANH and ANM) for 72 h, senescence is measured by SA-β-gal assay.
# Therefore, in order to examine whether the ROS inhibitory effect may be extended to suppress HG-induced senescence, HG-induced senescenece eliminated by ANM is examined. In FIG. 4B, HNDFs are incubated with ANM (10 μM) or NAC (100 μM) in the presence or absence of HG (30 mM) for 72 h. Cellular senescence is determined by SA-β-gal assay. […] As is shown, cells are co-incubated with HG and ANM or NAC for 72 h.
# Senescence-associated β-galactosidase (SA-β-gal) activity is determined in formaldehyde-fixed histochemical staining kit according to the manufacturer's instructions (Cell Signaling Technology, Danvers, Calif.). Briefly, cells are grown in 6-well plates at a density of 5×10^4 cells/well, and incubated with HG or test samples for 48 h (HUVECs) or 72 h (HNDFs). After incubation, cells are stained with SA-β-gal staining solution at pH 6.0 overnight and then the development of blue staining is observed and photographed under a bright-field microscope (Motic Electric Group, Xiamen, P.R. China).
# p53 and FoxO1 = assay: Western blot of p53 and FoxO1 acetylation/phosphorylation in HNDFs; conditions: pharmacological inhibitor in the presence of HG (FIG. 4G)
# Method: It is well known that p16^INK4A and p21^CIP1 are regulated by transcription factors p53 and FoxO1 followed by acetylation. […] In addition, p53 phosphorylation at Ser15 by their upstream kinases promotes transcriptional activation in response to DNA damage.
# To further examine the phenomenon that HG-induced p53 activation is relayed by the p38 MAPK or JNK/SAPK cascade, cells are incubated with corresponding pharmacological inhibitors, SB203580, SP600125, PD98059 and LY294002 for p38MAPK, JNK/SAPK, ERK1/2 and P13K/AKT, respectively in the presence of HG.
# (§2) The protein expression levels of SIRT-1, SIRT-6, p21^CIP1, SMP30, p53, FoxO and acetylation of p53 and FoxO1 are determined by western blot analysis.
# as §1
# Nrf2 = assay: ARE luciferase reporter assay (Nrf2 transcriptional activity) in HNDFs; conditions: inhibitor 30 μM 2 h, then ANM 10 μM + HG 30 mM 6 h
# Method: Therefore, to determine whether ANM augments Nrf2 transcriptional activity, ARE-harboring luciferase reporter assay is used. In FIG. 5E, to determine the Nrf2 transcriptional activity, HNDFs are transiently transfected with ARE promoter construct using lipofectamine and incubated with ANM (10 μM) or NAC (100 μM) in the presence or absence of HG (30 mM) for 6 h. Cell lysates are mixed with luciferase reagents and quantified using an illuminometer. Relative ARE promoter activity is calculated by dividing the relative luciferace unit (RLU) of treated cells by RLU of untreated cells (NG).
# Activation of P13K/AKT and mitogen-activated protein kinases (MAPKs), including ERK1/2, JNK/SAPK and p38 MAPK, facilitates Nrf2 transcriptional activation in a variety of human cell lines. […] To elucidate the upstream signaling events involved in ANM-induced Nrf2 transcriptional activity, cells are pre-incubated with pharmacological inhibitors of P13K/AKT (LY294002), ERK1/2 (PD98059), SAPK/JNK (SP600125) and p38MAPK (SB203580) for 2 h and treated with ANM for 6 h in the presence of HG. In FIG. 5G, HNDFs are pre-incubated with AKT, ERK1/2, JNK/SAPK and p38 MAPK inhibitors, including LY294002 (LY, 30 μM), PD98059 (PD, 30 μM), SP600125 (SP, 30 μM) and SB203580 (SB, 30 μM), respectively, for 2 h and then incubated with ANM (10 μM) in the presence of HG (30 mM) for 6 h. Cytoplasmic and nuclear fractions are prepared and subjected to western blot analysis. GAPDH and histone H3 are served as internal controls for the cytoplasmic and nuclear fraction, respectively.
# ARE promoter activity is measured using a dual-luciferase reporter assay system (Promega, Madison, Wis.). […] Cells are then transfected with ARE plasmid (Qiagen, Hilden, Germany) using Lipofectamine 2000 (Invitrogen) and incubated for 36 h. […] The cell lysate is prepared and incubated with luciferase agents and the relative luminescence intensity is quantified using a spectrophotometer (Hidex Oy, Turku, Finland).
# SIRT-1, SIRT-3, SIRT-6 = assay: Western blot of SIRT proteins and phos-SIRT-1 in HNDFs; conditions: inhibitor 30 μM + HG, 72 h
# Method: Total cell lysate is extracted and subjected to western blot analysis to monitor SIRT-1, SIRT-3, SIRT-6 protein levels.
# as §2
# To further understand the regulation of SIRT-1 by ANM, the effect of ANM on SIRT-1 activation and protein stability is examined under hyperglycemic conditions. In FIG. 7I, cells are incubated with JNK/SAPK or p38 MAPK inhibitors SP600125 (SP, 30 μM) and SB203580 (SB, 30 μM) in the presence of HG for 72 h. The protein expression levels of phos-SIRT-1 and SIRT-1 are determined by western blotting. Results are expressed as mean±S.E.M of three independent experiments. Statistical significance is set at ^ϕP<0.05 as compared to NG vs. HG and *P<0.05 as compared to HG vs. samples. Previous studies have shown that hyperphosphorylation of SIRT-1 at serine 47 (Ser47) is correlated with enhanced endothelial senescence. In addition, persistent activation of JNK1/2 by multiple factors including hyperglycemia induces extensive SIRT-1 proteasome degradation followed by phosphorylation at Ser47. […] Therefore, it is hypothesized that ANM-mediated suppression of JNK1/2 and p38 MAPK activation may have a functional role in the stability of SIRT-1 protein.
# as §1
compound,measurement,setting,value
"C=C(CC[C@@H](C)[C@H]1CC[C@H]2C3=C(C(=O)C[C@]12C)[C@@]1(C)CCC(=O)[C@@H](C)[C@@H]1CC3=O)[C@H](C)C(=O)O [ANB, antcin B]",pIC50,HNDFs (CCD966SK),5.15
same,cytotoxicity to HNDFs (in words),HNDFs (CCD966SK),strong cytotoxicity
"C=C(CCC(C)C1CCC2C3=C(C(=O)C(O)C21C)C1(C)CCC(O)C(C)C1CC3=O)C(C)C(=O)O (centres unmarked) [ANH, antcin H]",HG-induced p16^INK4A and p21^CIP1 protein expression,[1],moderate inhibition
same,cytotoxicity to HNDFs (in words),HNDFs (CCD966SK),did not show significant cytotoxicity
same,cell proliferation (number of viable cells) vs HG group,HNDFs [2],partially increase
same,SA-β-gal positive cells,HNDFs [3],8.13 fold
"COc1cccc(-c2cc(=O)c3ccccc3o2)c1N [PD98059, reference compound]","HG-induced p16^INK4A expression and p53 phosphorylation, kinase inhibitors",p53 and FoxO1,fails to protect
same,ANM-induced ARE luciferase activity after inhibitor pretreatment,Nrf2,effectively suppresses
same,"HG-induced SA-β-gal activity, kinase inhibitors",HNDFs [3],does not affect
"C[S+]([O-])c1ccc(-c2nc(-c3ccncc3)c(-c3ccc(F)cc3)[nH]2)cc1 (centres unmarked) [SB203580, reference compound]","HG-induced p16^INK4A expression and p53 phosphorylation, kinase inhibitors",p53 and FoxO1,reduced
same,ANM-induced ARE luciferase activity after inhibitor pretreatment,Nrf2,partially or barely inhibits
same,"SIRT-1 phosphorylation and reduction in SIRT-1, kinase inhibitors","SIRT-1, SIRT-3, SIRT-6",inhibits
same,"HG-induced SA-β-gal activity, kinase inhibitors",HNDFs [3],barely observed
"C=C(CC[C@@H](C)[C@H]1CC[C@H]2C3=C(C(=O)C[C@]12C)[C@@]1(C)CCC(=O)[C@@H](C)[C@@H]1CC3)C(C)C(=O)O (some centres unmarked) [ANA, antcin A]",HG-induced p16^INK4A and p21^CIP1 protein expression,[1],moderate inhibition
same,cytotoxicity to HNDFs (in words),HNDFs (CCD966SK),did not show significant cytotoxicity
same,cell proliferation (number of viable cells) vs HG group,HNDFs [2],partially increase
same,SA-β-gal positive cells,HNDFs [3],7.46 fold
"C=C(CC[C@@H](C)[C@H]1CC[C@H]2C3=C(C(=O)C[C@]12C)[C@@]1(C)CC[C@@H](O)[C@](C)(O)[C@@H]1C[C@@H]3O)C(C)C(=O)O (some centres unmarked) [ANK, antcin K]",pIC50,HNDFs (CCD966SK),5.54
same,cytotoxicity to HNDFs (in words),HNDFs (CCD966SK),strong cytotoxicity
"C=C(CC[C@@H](C)[C@H]1CC[C@H]2C3=C(C(=O)C[C@]12C)[C@@]1(C)CCC(=O)[C@@H](C)[C@@H]1C[C@@H]3O)[C@H](C)C(=O)O [ANC, antcin C]",cytotoxicity to HNDFs (in words),HNDFs (CCD966SK),did not show significant cytotoxicity
